Measurements taken from ChEMBL document CHEMBL1159076, “Toosendanin: synthesis of the AB-ring and investigations of its anti-botulinum properties (Part II)” (Bioorg Med Chem, 2010).
Calls of active or inactive are those of the source. The rule behind the calls is not given here.

Legend:
[1] = target: Botulinum neurotoxin type A (Clostridium botulinum (strain Hall / ATCC 3502 / NCTC 13319 / Type A)) (UniProt P0DPI1); assay: Inhibition of Clostridium botulinum strain Hall A hyper botulinum neurotoxin type A1 in rat spinal cord cells assessed as intact SNAP25 protein level at 1 mM after 24 hrs by Western blot using monoclonal anti-SNAP25 antibody; type: cell-based
[2] = target: Botulinum neurotoxin type A (Clostridium botulinum (strain Hall / ATCC 3502 / NCTC 13319 / Type A)) (UniProt P0DPI1); assay: Inhibition of Clostridium botulinum strain Hall A hyper botulinum neurotoxin type A1 in rat spinal cord cells assessed as intact SNAP25 protein level at 200 uM after 24 hrs by Western blot using monoclonal anti-SNAP25 antibody; type: cell-based

Sequence of Botulinum neurotoxin type A (Clostridium botulinum (strain Hall / ATCC 3502 / NCTC 13319 / Type A)) (P0DPI1 2-448 limits assumed): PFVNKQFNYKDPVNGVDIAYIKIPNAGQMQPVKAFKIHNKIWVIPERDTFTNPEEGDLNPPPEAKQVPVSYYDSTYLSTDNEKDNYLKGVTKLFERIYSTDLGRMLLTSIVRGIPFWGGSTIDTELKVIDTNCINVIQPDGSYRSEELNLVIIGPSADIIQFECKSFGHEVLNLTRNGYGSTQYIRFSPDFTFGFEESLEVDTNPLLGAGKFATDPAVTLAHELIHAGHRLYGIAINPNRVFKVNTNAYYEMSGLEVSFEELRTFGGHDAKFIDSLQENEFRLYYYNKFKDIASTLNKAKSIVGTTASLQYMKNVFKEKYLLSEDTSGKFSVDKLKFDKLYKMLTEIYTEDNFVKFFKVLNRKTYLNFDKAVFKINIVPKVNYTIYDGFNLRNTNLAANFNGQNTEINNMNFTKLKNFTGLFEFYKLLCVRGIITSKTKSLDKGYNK

| SMILES | inhibition [1] | inhibition [2] |
| --- | --- | --- |
| CC(=O)O[C@@H]1C[C@H](O)[C@]23CC[C@@H](O)C[C@H]2[C@H]1[C@H](O)OC3 | inactive |  |
| CC(=O)O[C@@H]1C[C@H](O)[C@@]23CO[C@@H](O)[C@]1(C)[C@@H]2C[C@@H](O)[C@]1(C)[C@@H]3C(=O)[C@H](OC(C)=O)[C@@]2(C)[C@H](c3ccoc3)C[C@H]3O[C@]321 |  | Active |
| CC(=O)O[C@@H]1C[C@H](O)[C@]23CC[C@H](O)C[C@H]2[C@H]1[C@H](O)OC3 | inactive |  |
